ChEMBL document CHEMBL1201862, “PubChem BioAssay data set” (2004)
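Grown in 96-well plates, cells were treated for 48 hours with each compound at five concentrations. Insufficient inhibition: endpoint recorded as highest concentration tested. The concentration for 50% growth inhibition is given as GI50.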 Activity calls are given as the source filed them. Cut-off read from the data, not from the text of the source: active = GI50 up to about 1.1 µM and inactive = higher.

Key:
Test in all cases: DTP human tumour cell line panel, 48 h
[1] = test system: SF-268
[2] = test system: OVCAR-5
[3] = test system: Malme-3M
[4] = test system: M14
[5] = test system: DMS-273
[6] = test system: CCRF-CEM
[7] = test system: HL-60
[8] = test system: COLO 205
[9] = test system: CAKI-1
[10] = test system: SNB-19
[11] = test system: NCI-H23
[12] = test system: HCT-116
[13] = test system: UO-31
[14] = test system: HT-29
[15] = test system: LXFL 529
[16] = test system: U-251
[17] = test system: IGROV-1
[18] = test system: HOP-92
[19] = test system: SNB-78
[20] = test system: Hs-578T

Measured: GI50

CC1=NN(C(=O)Cc2ccccc2)C(=O)/C1=C/c1c(O)ccc2ccccc12
inactive: [1] 55.5 µM | [2] 35.8 µM | [3] 15.8 µM | [4] 10 µM | [5] 50.5 µM | [6] 23.3 µM | [7] 49.2 µM | [8] > 100 µM | [9] 92.5 µM | [10] 50.8 µM | [11] 61.7 µM | [12] 49.1 µM | [13] 22.2 µM | [14] 57.3 µM

CCc1cccc(CC)c1NC(=O)C1=C(C)NC(C)=C(C(=O)Nc2c(CC)cccc2CC)C1c1ccc([N+](=O)[O-])cc1
inactive: [15] 16.8 µM | [1] 33.7 µM | [2] 44.7 µM | [3] 17.3 µM | [4] 17.5 µM | [6] 15.5 µM | [7] 16.4 µM | [16] 40.5 µM | [8] 18 µM | [9] 15.8 µM | [10] 54.5 µM | [11] 22.8 µM | [17] 14.4 µM | [12] 15.1 µM | [13] 23.2 µM | [18] 10.3 µM | [14] 17.1 µM

BrC1=CC=C2NCCCCCC/N=C3\C=CC(Br)=CC=C3NCCCCCC/N=C\2C=C1
inactive: [1] > 25.5 µM | [2] > 25.5 µM | [3] > 25.5 µM | [4] > 25.5 µM | [5] > 25.5 µM | [6] > 25.5 µM | [7] > 25.5 µM | [16] > 25.5 µM | [19] > 25.5 µM | [9] > 25.5 µM | [10] > 25.5 µM | [11] > 25.5 µM | [17] > 25.5 µM | [12] > 25.5 µM | [13] > 25.5 µM | [18] > 25.5 µM | [14] > 25.5 µM

O=C(O)C1CC(O)CN1 (configuration not stated)
inactive: [1] > 100 µM | [2] > 100 µM | [3] > 100 µM | [4] > 100 µM | [6] > 100 µM | [7] > 100 µM | [16] > 100 µM | [8] > 100 µM | [9] > 100 µM | [10] > 100 µM | [11] > 100 µM | [17] > 100 µM | [12] > 100 µM | [13] > 100 µM | [20] > 100 µM | [18] > 100 µM | [14] > 100 µM

CCCCOC(=O)C1C2CCC(O2)C1C(=O)OCCCC (configuration not stated)
inactive: [1] > 55.8 µM | [2] > 89.9 µM | [3] > 100 µM | [4] > 52.1 µM | [5] > 100 µM | [6] > 100 µM | [7] > 100 µM | [16] > 65.6 µM | [19] > 100 µM | [8] > 42.5 µM | [9] > 100 µM | [10] > 100 µM | [11] > 100 µM | [17] > 100 µM | [12] > 45.6 µM | [13] > 100 µM | [18] > 100 µM | [14] > 45.7 µM

CCCCC(=C=C1CCCCC1O)C1CCCN1C(=O)OC(C)(C)C (configuration not stated)
inactive: [1] 17.3 µM | [2] 16 µM | [3] 17.3 µM | [4] 16.9 µM | [6] 17.6 µM | [7] 11.1 µM | [16] 15.9 µM | [8] 17.3 µM | [9] 11.5 µM | [10] 16.4 µM | [11] 16 µM | [17] 16.7 µM | [12] 14.3 µM | [13] 21.3 µM | [20] 19.3 µM | [18] 12.8 µM | [14] 14.3 µM

O=C1C(/C=N/CCc2c[nH]c3ccccc23)C(C(F)(F)F)=NN1c1nc2ccccc2s1 (configuration not stated)
inactive: [1] 50.5 µM | [2] 29.2 µM | [3] 29.6 µM | [4] 30.7 µM | [6] 19.5 µM | [7] 19.8 µM | [16] 34.8 µM | [8] 17.7 µM | [9] 37.2 µM | [10] 36.5 µM | [11] 30.8 µM | [17] 24.4 µM | [12] 31.6 µM | [13] 31.3 µM | [20] 44.1 µM | [18] 16.4 µM | [14] 27.5 µM

CC(C)CNc1nc(N)nc(O)c1NC=O
inactive: [1] > 100 µM | [2] > 100 µM | [3] > 100 µM | [4] > 100 µM | [6] > 100 µM | [7] > 100 µM | [16] > 100 µM | [8] > 100 µM | [9] > 100 µM | [10] > 100 µM | [11] > 100 µM | [17] > 100 µM | [12] > 100 µM | [13] > 100 µM | [20] > 100 µM | [18] > 100 µM | [14] > 100 µM

CC(=O)NC(Cc1c[nH]cn1)C(=O)N1CCCC1C(N)=O (configuration not stated)
inactive: [1] > 100 µM | [2] > 100 µM | [3] > 100 µM | [4] > 100 µM | [6] > 100 µM | [7] > 100 µM | [16] > 100 µM | [8] > 100 µM | [9] > 100 µM | [10] > 100 µM | [11] > 100 µM | [17] > 100 µM | [12] > 100 µM | [13] > 100 µM | [20] > 100 µM | [18] > 100 µM | [14] > 100 µM

O=c1c2cc(S(=O)(=O)Nc3ccc(Cl)cc3Cl)ccc2ncn1NS(=O)(=O)c1cccc2ccccc12
inactive: [1] 30.3 µM | [2] 61.5 µM | [3] > 100 µM | [4] 93.8 µM | [6] 12.7 µM | [7] 14.5 µM | [16] 58.2 µM | [8] 43.7 µM | [9] 15.7 µM | [10] 21.6 µM | [11] 40.4 µM | [17] 20.7 µM | [12] 30.5 µM | [13] 14.1 µM | [20] 21.5 µM | [18] 16.2 µM | [14] 32 µM

COc1ccc2ccccc2c1C1OC(=O)c2ccccc21 (configuration not stated)
inactive: [1] > 100 µM | [2] > 100 µM | [3] > 100 µM | [4] > 100 µM | [5] 86.9 µM | [6] > 100 µM | [7] 44.3 µM | [16] > 100 µM | [19] > 100 µM | [8] > 100 µM | [9] > 100 µM | [10] > 100 µM | [11] > 100 µM | [17] > 100 µM | [13] 68.2 µM | [18] > 100 µM | [14] > 100 µM

NC(=O)Nc1c(Cl)cc(S(N)(=O)=O)cc1Cl
inactive: [1] > 100 µM | [2] > 100 µM | [3] > 100 µM | [4] > 100 µM | [6] > 100 µM | [7] > 100 µM | [16] > 100 µM | [8] > 100 µM | [9] > 100 µM | [10] > 100 µM | [11] > 100 µM | [17] > 100 µM | [12] > 100 µM | [13] > 100 µM | [20] > 100 µM | [18] > 100 µM | [14] > 100 µM
